In paper PMC12670405, “Second-Generation AURKA-Targeting PROTACs: Structural Optimization toward in Vivo Degradation in Neuroblastoma” (Journal of Medicinal Chemistry, 2025):

Key:
Assay in all cases: KINOMEscan scanMAX
Assay type in all cases: binding
Details in all cases: read-out: Percent Control
[1] = target: T1, ADCK4 (Homo sapiens, UniProt Q96D53)
T1 construct: purchased Eurofins Discovery (DiscoverX KINOMEscan scanMAX)
Description: (§1) The kinome-wide binding assay was performed by Eurofins Discovery using the scanMAX screening platform. More information can be found on the Eurofins Discovery Web site.

[2] = target: T2, AMPK-alpha1 (Homo sapiens, UniProt Q13131)
T2 construct: purchased Eurofins Discovery (DiscoverX KINOMEscan scanMAX)
Description: as §1

[3] = target: T3, AMPK-alpha2 (Homo sapiens, UniProt P54646)
T3 construct: purchased Eurofins Discovery (DiscoverX KINOMEscan scanMAX)
Description: as §1

[4] = target: T4, BMPR1A (Homo sapiens, UniProt P36894)
T4 construct: purchased Eurofins Discovery (DiscoverX KINOMEscan scanMAX)
Description: as §1

[5] = target: T5, CDKL2 (Homo sapiens, UniProt Q92772)
T5 construct: purchased Eurofins Discovery (DiscoverX KINOMEscan scanMAX)
Description: as §1

[6] = target: T6, DAPK1 (Homo sapiens, UniProt P53355)
T6 construct: purchased Eurofins Discovery (DiscoverX KINOMEscan scanMAX)
Description: as §1

[7] = target: T7, DAPK2 (Homo sapiens, UniProt Q9UIK4)
T7 construct: purchased Eurofins Discovery (DiscoverX KINOMEscan scanMAX)
Description: as §1

[8] = target: T8, EGFR(L747-E749del, A750P) (Homo sapiens, UniProt P00533, A750P/DEL747-749)
T8 construct: purchased Eurofins Discovery (DiscoverX KINOMEscan scanMAX)
Description: as §1

[9] = target: T9, FGFR2 (Homo sapiens, UniProt P21802)
T9 construct: purchased Eurofins Discovery (DiscoverX KINOMEscan scanMAX)
Description: as §1

[10] = target: T10, HIPK4 (Homo sapiens, UniProt Q8NE63)
T10 construct: purchased Eurofins Discovery (DiscoverX KINOMEscan scanMAX)
Description: as §1

[11] = target: T11, HPK1 (Homo sapiens, UniProt Q92918)
T11 construct: purchased Eurofins Discovery (DiscoverX KINOMEscan scanMAX)
Description: as §1

[12] = target: T12, IKK-alpha (Homo sapiens, UniProt O15111)
T12 construct: purchased Eurofins Discovery (DiscoverX KINOMEscan scanMAX)
Description: as §1

[13] = target: T13, JNK3 (Homo sapiens, UniProt P53779)
T13 construct: purchased Eurofins Discovery (DiscoverX KINOMEscan scanMAX)
Description: as §1

[14] = target: T14, KIT(V559D) (Homo sapiens, UniProt P10721, V559D)
T14 construct: purchased Eurofins Discovery (DiscoverX KINOMEscan scanMAX)
Description: as §1

[15] = target: T15, LATS2 (Homo sapiens, UniProt Q9NRM7)
T15 construct: purchased Eurofins Discovery (DiscoverX KINOMEscan scanMAX)
Description: as §1

[16] = target: T16, LRRK2(G2019S) (Homo sapiens, UniProt Q5S007, G2019S)
T16 construct: purchased Eurofins Discovery (DiscoverX KINOMEscan scanMAX)
Description: as §1

[17] = target: T17, MAP3K3 (Homo sapiens, UniProt Q99759)
T17 construct: purchased Eurofins Discovery (DiscoverX KINOMEscan scanMAX)
Description: as §1

[18] = target: T18, MAP4K2 (Homo sapiens, UniProt Q12851)
T18 construct: purchased Eurofins Discovery (DiscoverX KINOMEscan scanMAX)
Description: as §1

[19] = target: T19, MAP4K3 (Homo sapiens, UniProt Q8IVH8)
T19 construct: purchased Eurofins Discovery (DiscoverX KINOMEscan scanMAX)
Description: as §1

[20] = target: T20, MINK (Homo sapiens, UniProt Q8N4C8)
T20 construct: purchased Eurofins Discovery (DiscoverX KINOMEscan scanMAX)
Description: as §1

[21] = target: T21, NDR1 (Homo sapiens, UniProt Q15208)
T21 construct: purchased Eurofins Discovery (DiscoverX KINOMEscan scanMAX)
Description: as §1

[22] = target: T22, PIP5K2B (Homo sapiens, UniProt P78356)
T22 construct: purchased Eurofins Discovery (DiscoverX KINOMEscan scanMAX)
Description: as §1

[23] = target: T23, PKN2 (Homo sapiens, UniProt Q16513)
T23 construct: purchased Eurofins Discovery (DiscoverX KINOMEscan scanMAX)
Description: as §1

[24] = target: T24, PKNB(M.tuberculosis) (Mycobacterium tuberculosis, UniProt P9WI81)
T24 construct: purchased Eurofins Discovery (DiscoverX KINOMEscan scanMAX)
Description: as §1

[25] = target: T25, PLK1 (Homo sapiens, UniProt P53350)
T25 construct: purchased Eurofins Discovery (DiscoverX KINOMEscan scanMAX)
Description: as §1

[26] = target: T26, RSK2(Kin.Dom.1-N-terminal) (Homo sapiens, UniProt P51812)
T26 construct: RSK2(Kin.Dom.1-N-terminal); purchased Eurofins Discovery (DiscoverX KINOMEscan scanMAX)
Description: as §1

[27] = target: T27, RSK2(Kin.Dom.2-C-terminal) (Homo sapiens, UniProt P51812)
T27 construct: RSK2(Kin.Dom.2-C-terminal); purchased Eurofins Discovery (DiscoverX KINOMEscan scanMAX)
Description: as §1

[28] = target: T28, STK39 (Homo sapiens, UniProt Q9UEW8)
T28 construct: purchased Eurofins Discovery (DiscoverX KINOMEscan scanMAX)
Description: as §1

[29] = target: T29, TGFBR2 (Homo sapiens, UniProt P37173)
T29 construct: purchased Eurofins Discovery (DiscoverX KINOMEscan scanMAX)
Description: as §1

[30] = target: T30, TIE1 (Homo sapiens, UniProt P35590)
T30 construct: purchased Eurofins Discovery (DiscoverX KINOMEscan scanMAX)
Description: as §1

[31] = target: T31, WNK1 (Homo sapiens, UniProt Q9H4A3)
T31 construct: purchased Eurofins Discovery (DiscoverX KINOMEscan scanMAX)
Description: as §1

[32] = target: T32, YANK1 (Homo sapiens, UniProt Q8WU08)
T32 construct: purchased Eurofins Discovery (DiscoverX KINOMEscan scanMAX)
Description: as §1

[33] = target: T33, p38-gamma (Homo sapiens, UniProt P53778)
T33 construct: purchased Eurofins Discovery (DiscoverX KINOMEscan scanMAX)
Description: as §1

T15 sequence (Q9NRM7 whole entry): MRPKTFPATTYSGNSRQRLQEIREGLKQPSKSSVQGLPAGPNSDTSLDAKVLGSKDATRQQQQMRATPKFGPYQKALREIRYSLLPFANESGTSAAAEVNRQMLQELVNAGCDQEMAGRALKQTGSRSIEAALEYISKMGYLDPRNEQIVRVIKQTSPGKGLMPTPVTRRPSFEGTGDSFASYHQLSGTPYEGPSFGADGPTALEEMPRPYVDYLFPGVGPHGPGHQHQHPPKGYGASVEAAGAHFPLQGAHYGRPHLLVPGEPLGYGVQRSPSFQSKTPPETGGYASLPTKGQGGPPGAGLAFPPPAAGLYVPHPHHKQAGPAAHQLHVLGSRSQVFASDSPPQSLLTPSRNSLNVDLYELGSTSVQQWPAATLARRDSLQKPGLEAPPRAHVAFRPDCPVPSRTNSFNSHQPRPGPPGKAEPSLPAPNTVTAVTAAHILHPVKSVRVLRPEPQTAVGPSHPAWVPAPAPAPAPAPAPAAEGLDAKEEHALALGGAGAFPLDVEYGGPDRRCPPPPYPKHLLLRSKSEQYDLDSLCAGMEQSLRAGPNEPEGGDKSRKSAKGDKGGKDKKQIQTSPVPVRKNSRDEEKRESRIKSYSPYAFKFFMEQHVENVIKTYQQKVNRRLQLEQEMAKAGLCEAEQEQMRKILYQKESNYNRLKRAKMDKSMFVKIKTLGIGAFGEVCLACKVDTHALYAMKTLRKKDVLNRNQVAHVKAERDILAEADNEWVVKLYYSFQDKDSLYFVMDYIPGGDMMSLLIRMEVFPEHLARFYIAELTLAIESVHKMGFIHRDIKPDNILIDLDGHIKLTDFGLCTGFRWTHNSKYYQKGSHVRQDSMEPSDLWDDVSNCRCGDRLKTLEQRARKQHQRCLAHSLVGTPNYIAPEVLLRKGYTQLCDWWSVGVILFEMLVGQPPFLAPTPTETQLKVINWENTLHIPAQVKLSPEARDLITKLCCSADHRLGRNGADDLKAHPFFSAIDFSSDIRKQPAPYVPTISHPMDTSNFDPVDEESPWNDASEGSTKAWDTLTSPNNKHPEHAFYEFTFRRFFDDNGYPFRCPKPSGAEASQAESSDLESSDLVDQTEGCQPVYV
T1 sequence (Q96D53 whole entry): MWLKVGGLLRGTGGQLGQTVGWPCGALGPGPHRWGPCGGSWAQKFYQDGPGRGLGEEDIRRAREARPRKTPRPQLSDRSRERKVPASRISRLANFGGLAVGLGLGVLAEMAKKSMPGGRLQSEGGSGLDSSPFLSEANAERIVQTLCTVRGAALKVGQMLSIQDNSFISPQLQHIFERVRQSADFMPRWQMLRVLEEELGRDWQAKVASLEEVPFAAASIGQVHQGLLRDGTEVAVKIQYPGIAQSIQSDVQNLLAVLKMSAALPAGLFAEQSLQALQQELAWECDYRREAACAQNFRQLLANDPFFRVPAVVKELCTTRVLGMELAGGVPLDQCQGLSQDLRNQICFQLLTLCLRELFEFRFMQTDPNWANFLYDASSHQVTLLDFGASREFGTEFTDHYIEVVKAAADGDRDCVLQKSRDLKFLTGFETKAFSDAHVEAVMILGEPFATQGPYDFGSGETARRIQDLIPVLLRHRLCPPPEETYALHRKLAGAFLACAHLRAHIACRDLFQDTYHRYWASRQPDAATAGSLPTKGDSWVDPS
T27 sequence (P51812 398-740 limits assumed): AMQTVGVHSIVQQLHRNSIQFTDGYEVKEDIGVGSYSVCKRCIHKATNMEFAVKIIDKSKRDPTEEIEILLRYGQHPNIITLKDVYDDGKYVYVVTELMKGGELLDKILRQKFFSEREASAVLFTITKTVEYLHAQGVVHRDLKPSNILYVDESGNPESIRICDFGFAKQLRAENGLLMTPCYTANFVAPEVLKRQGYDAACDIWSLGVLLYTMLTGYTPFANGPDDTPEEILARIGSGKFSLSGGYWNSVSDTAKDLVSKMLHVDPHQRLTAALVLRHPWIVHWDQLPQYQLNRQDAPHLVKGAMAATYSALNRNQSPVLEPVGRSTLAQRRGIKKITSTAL
T10 sequence (Q8NE63 whole entry): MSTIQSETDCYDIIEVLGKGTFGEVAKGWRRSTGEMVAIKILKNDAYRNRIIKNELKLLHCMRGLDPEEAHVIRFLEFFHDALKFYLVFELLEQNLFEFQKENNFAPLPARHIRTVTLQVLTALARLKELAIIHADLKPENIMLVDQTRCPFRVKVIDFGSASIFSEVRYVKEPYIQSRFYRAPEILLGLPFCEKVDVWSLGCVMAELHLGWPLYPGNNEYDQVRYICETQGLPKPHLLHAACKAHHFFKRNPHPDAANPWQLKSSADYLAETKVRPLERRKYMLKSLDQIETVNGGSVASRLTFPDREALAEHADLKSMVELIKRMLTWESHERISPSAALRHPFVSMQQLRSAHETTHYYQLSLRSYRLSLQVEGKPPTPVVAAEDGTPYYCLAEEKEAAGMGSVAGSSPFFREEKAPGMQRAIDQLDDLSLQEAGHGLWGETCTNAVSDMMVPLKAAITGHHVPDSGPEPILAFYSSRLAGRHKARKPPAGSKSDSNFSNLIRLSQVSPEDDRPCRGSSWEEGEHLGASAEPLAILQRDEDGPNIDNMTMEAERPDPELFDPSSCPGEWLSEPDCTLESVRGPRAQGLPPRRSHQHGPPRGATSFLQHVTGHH
T8 sequence (P00533 with tags, fused parts or gaps DEL747-749/A750P limits assumed): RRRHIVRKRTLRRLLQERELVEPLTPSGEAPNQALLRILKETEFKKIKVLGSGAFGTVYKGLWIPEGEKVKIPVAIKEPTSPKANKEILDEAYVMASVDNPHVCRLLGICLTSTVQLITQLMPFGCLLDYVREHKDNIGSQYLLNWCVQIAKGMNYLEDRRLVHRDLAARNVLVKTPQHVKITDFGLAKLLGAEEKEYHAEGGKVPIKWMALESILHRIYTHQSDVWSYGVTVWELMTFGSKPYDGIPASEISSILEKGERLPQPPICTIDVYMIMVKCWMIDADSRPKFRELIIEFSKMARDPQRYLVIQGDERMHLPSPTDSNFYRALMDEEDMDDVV
T12 sequence (O15111 whole entry): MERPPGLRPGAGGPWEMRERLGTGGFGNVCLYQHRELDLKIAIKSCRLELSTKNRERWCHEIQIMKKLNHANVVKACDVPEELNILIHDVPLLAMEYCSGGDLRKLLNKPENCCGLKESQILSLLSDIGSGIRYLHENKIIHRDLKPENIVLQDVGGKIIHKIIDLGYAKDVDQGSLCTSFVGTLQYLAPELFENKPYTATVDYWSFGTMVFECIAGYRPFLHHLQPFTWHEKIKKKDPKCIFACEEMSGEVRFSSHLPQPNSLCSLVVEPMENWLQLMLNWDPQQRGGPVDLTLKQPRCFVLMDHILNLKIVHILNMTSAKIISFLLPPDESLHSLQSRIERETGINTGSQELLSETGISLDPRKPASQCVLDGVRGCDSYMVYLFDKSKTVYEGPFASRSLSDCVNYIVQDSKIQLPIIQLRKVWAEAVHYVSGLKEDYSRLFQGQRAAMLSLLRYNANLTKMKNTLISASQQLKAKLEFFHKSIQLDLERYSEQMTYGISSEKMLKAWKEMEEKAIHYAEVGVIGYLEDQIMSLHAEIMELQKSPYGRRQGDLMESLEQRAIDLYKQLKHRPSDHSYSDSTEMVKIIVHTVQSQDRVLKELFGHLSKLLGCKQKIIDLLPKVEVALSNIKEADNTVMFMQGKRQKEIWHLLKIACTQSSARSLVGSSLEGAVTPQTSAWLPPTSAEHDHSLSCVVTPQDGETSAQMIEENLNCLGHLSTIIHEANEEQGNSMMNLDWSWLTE
T25 sequence (P53350 whole entry): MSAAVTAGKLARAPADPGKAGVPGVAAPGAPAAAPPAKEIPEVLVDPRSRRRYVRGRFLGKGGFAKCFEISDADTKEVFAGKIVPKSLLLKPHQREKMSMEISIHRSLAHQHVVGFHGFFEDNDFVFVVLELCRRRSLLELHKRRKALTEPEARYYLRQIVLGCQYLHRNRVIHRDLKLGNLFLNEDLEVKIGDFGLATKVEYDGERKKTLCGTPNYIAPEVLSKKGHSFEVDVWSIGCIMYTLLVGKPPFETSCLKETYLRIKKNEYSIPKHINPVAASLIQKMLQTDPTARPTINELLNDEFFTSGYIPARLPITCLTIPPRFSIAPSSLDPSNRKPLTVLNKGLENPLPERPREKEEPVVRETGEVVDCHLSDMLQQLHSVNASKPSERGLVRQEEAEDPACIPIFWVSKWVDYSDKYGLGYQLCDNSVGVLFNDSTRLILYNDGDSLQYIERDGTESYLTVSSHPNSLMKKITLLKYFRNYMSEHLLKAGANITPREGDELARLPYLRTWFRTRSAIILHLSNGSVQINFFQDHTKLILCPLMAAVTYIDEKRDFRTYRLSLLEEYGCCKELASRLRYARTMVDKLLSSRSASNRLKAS
T29 sequence (P37173 23-567): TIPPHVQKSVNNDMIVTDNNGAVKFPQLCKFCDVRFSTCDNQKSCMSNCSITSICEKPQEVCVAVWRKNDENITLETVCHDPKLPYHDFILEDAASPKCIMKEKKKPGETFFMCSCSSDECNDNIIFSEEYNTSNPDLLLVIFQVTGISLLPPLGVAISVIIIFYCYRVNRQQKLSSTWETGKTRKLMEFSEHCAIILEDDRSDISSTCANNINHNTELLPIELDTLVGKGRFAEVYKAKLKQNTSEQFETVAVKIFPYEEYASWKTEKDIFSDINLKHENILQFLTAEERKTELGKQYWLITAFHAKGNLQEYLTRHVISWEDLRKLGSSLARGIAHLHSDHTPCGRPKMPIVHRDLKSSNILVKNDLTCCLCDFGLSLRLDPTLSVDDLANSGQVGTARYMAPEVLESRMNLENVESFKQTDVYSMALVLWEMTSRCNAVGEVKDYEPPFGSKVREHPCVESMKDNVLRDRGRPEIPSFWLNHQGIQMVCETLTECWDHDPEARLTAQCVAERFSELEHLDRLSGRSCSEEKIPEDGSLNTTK

Structure (SMILES): Cc1cc(Nc2ccc(F)c(CC3(C(=O)N4CCC(F)(CN5CCN(c6ccc(N7CCC(=O)NC7=O)cn6)CC5)CC4)CCN(Cc4cccc(Cl)c4F)CC3)n2)n[nH]1 [SK5527]
- remaining binding at 0.1 µM ([1]; 100 nM): 92%
- remaining binding at 1 µM ([1]; 1000 nM): 84%
- remaining binding at 0.1 µM ([2]; 100 nM): 100%
- remaining binding at 1 µM ([2]; 1000 nM): 100%
- remaining binding at 0.1 µM ([3]; 100 nM): 93%
- remaining binding at 1 µM ([3]; 1000 nM): 100%
- remaining binding at 0.1 µM ([4]; 100 nM): 100%
- remaining binding at 1 µM ([4]; 1000 nM): 100%
- remaining binding at 0.1 µM ([5]; 100 nM): 90%
- remaining binding at 1 µM ([5]; 1000 nM): 100%
- remaining binding at 0.1 µM ([6]; 100 nM): 85%
- remaining binding at 1 µM ([6]; 1000 nM): 81%
- remaining binding at 0.1 µM ([7]; 100 nM): 100%
- remaining binding at 1 µM ([7]; 1000 nM): 93%
- remaining binding at 0.1 µM ([8]; 100 nM): 100%
- remaining binding at 1 µM ([8]; 1000 nM): 97%
- remaining binding at 0.1 µM ([9]; 100 nM): 100%
- remaining binding at 1 µM ([9]; 1000 nM): 90%
- remaining binding at 0.1 µM ([10]; 100 nM): 85%
- remaining binding at 1 µM ([10]; 1000 nM): 81%
- remaining binding at 0.1 µM ([11]; 100 nM): 100%
- remaining binding at 1 µM ([11]; 1000 nM): 100%
- remaining binding at 0.1 µM ([12]; 100 nM): 100%
- remaining binding at 1 µM ([12]; 1000 nM): 100%
- remaining binding at 0.1 µM ([13]; 100 nM): 63%
- remaining binding at 1 µM ([13]; 1000 nM): 69%
- remaining binding at 0.1 µM ([14]; 100 nM): 100%
- remaining binding at 1 µM ([14]; 1000 nM): 100%
- remaining binding at 0.1 µM ([15]; 100 nM): 69%
- remaining binding at 1 µM ([15]; 1000 nM): 43%
- remaining binding at 0.1 µM ([16]; 100 nM): 73%
- remaining binding at 1 µM ([16]; 1000 nM): 67%
- remaining binding at 0.1 µM ([17]; 100 nM): 100%
- remaining binding at 1 µM ([17]; 1000 nM): 96%
- remaining binding at 0.1 µM ([18]; 100 nM): 88%
- remaining binding at 1 µM ([18]; 1000 nM): 95%
- remaining binding at 0.1 µM ([19]; 100 nM): 82%
- remaining binding at 1 µM ([19]; 1000 nM): 72%
- remaining binding at 0.1 µM ([20]; 100 nM): 98%
- remaining binding at 1 µM ([20]; 1000 nM): 86%
- remaining binding at 0.1 µM ([21]; 100 nM): 98%
- remaining binding at 1 µM ([21]; 1000 nM): 82%
- remaining binding at 0.1 µM ([22]; 100 nM): 100%
- remaining binding at 1 µM ([22]; 1000 nM): 100%
- remaining binding at 0.1 µM ([23]; 100 nM): 81%
- remaining binding at 1 µM ([23]; 1000 nM): 81%
- remaining binding at 0.1 µM ([24]; 100 nM): 93%
- remaining binding at 1 µM ([24]; 1000 nM): 94%
- remaining binding at 0.1 µM ([25]; 100 nM): 58%
- remaining binding at 1 µM ([25]; 1000 nM): 82%
- remaining binding at 0.1 µM ([26]; 100 nM): 80%
- remaining binding at 1 µM ([26]; 1000 nM): 68%
- remaining binding at 0.1 µM ([27]; 100 nM): 82%
- remaining binding at 1 µM ([27]; 1000 nM): 89%
- remaining binding at 0.1 µM ([28]; 100 nM): 100%
- remaining binding at 1 µM ([28]; 1000 nM): 85%
- remaining binding at 0.1 µM ([29]; 100 nM): 100%
- remaining binding at 1 µM ([29]; 1000 nM): 100%
- remaining binding at 0.1 µM ([30]; 100 nM): 89%
- remaining binding at 1 µM ([30]; 1000 nM): 68%
- remaining binding at 0.1 µM ([31]; 100 nM): 73%
- remaining binding at 1 µM ([31]; 1000 nM): 77%
- remaining binding at 0.1 µM ([32]; 100 nM): 100%
- remaining binding at 1 µM ([32]; 1000 nM): 77%
- remaining binding at 0.1 µM ([33]; 100 nM): 97%
- remaining binding at 1 µM ([33]; 1000 nM): 87%
